Laboratory results reported in patent publication US12263248B2, “Compounds and compositions for intracellular delivery of therapeutic agents” (ModernaTX, Inc., priority 2018, dated 2025).

Assays:
[1] = Apparent (surface) pKa of the LNP formulation (TNS assay); assay type: physicochemical; conditions: Table 1A
Outline: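 LNP (0.04 mg/mL mRNA) mixed with TNS reagent in 21 buffers spanning about pH 3-12, in triplicate; fluorescence plotted against pH as sigmoidal curve. Apparent pKa taken as […] curve inflection point; validated in 1× PBS and 20 mM Tris w/8% sucrose.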

IL-6, IP-10 = experiment: Cytokine induction in mice upon intravenous administration; assay type: in vivo; design: Cytokine induction IL-6 / Cytokine induction IP-10: unit not given here; conditions: 0.5 mpk, 6 hours; for Cytokine induction IL-6 / Cytokine induction IP-10: intravenous
From the text: The introduction of foreign material into a mammalian body induces an innate immune response that promotes cytokine production. Such immune responses to, for example, nanoparticle compositions including therapeutic and/or prophylactics, are undesirable. The induction of certain cytokines is thus measured to evaluate the […] of nanoparticle compositions. The concentrations of various cytokines in mice upon intravenous administration of nanoparticle compositions presented in Table 1A at a dosage of 0.5 mpk was measured at 6 hours. The standard MC3 formulation and a PBS control were also tested. As is evident in Table 7, IL-6 induction was highest for compositions including Compounds 1, 3, 9, 19, and 26, while IP-10 induction was highest for compositions including Compounds 3, 4, 7, 20, and 26. IL-6 induction was lowest for compositions including Compounds 4, 11, 12, and 28. IP-10 induction was lowest for compositions including Compounds 10, 11, 12, 13, 15, 17, and 18.

luciferase (Luc) mRNA [2] = experiment: Luc expression, whole body bioluminescence after intravenous administration to mice; assay type: in vivo; conditions: mice, i.v., 0.5 mg/kg, Luc mRNA
Outline: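 Luc mRNA nanoparticle formulations given intravenously to mice (n=6) at 0.5 mg/kg; whole-body bioluminescence imaged at 3, 6 and 24 h. CD-1 mice received IP D-luciferin (200 μL of 15 mg/mL) 15 min before imaging; total flux quantified by region of interest.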

luciferase (Luc) mRNA [3] = experiment: Luc expression in liver, lung, spleen and femur 6 hours after intravenous administration; assay type: in vivo; conditions: mice, intravenous, 0.5 mpk
Outline: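 LNP-formulated mRNA given IV to mice (n=3) at 0.5 mpk; at 6 h, bioluminescence imaged ex vivo 15 min after IP D-luciferin (15 mg/mL, 200 μL), organs imaged within 25 min. Values are total flux by region of interest.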

[4] = Encapsulation efficiency of RNA (QUANT-IT RIBOGREEN RNA assay); assay type: physicochemical; conditions: Table 1A
Outline: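 RiboGreen fluorescence (ex ~480, em ~520 nm) compared between intact samples and Triton X-100-lysed samples after 15 min at 37 °C in TE buffer, pH 7.5. Percent free RNA is the blank-corrected intact/disrupted ratio.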

[5] = Particle size and polydispersity index of nanoparticle compositions (Zetasizer Nano ZS); assay type: physicochemical; conditions: Table 1A; for Size (nm): lipid:DSPC:cholesterol:PEG-DMG 50:10:38.5:1.5 mol %
Outline: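 In 1×PBS, the compositions were sized on a Zetasizer Nano ZS, which also reported their polydispersity index.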

SMILES	pKa [1]	IP-10 induction (IL-6, IP-10; i.v., in words)	Cytokine induction IL-6 (IL-6, IP-10)	Cytokine induction IP-10 (IL-6, IP-10)	Total Flux 3 hours (luciferase (Luc) mRNA [2])	Total Flux 6 hours (luciferase (Luc) mRNA [2])	Total Flux 24 hours (luciferase (Luc) mRNA [2])	Total Flux Femur (luciferase (Luc) mRNA [3])	Total Flux Liver (luciferase (Luc) mRNA [3])	Total Flux Lung (luciferase (Luc) mRNA [3])	Total Flux Spleen (luciferase (Luc) mRNA [3])	EE (%) [4]	PDI [5]	Size (nm) [5]	IL-6 induction (IL-6, IP-10; i.v., in words)
CCCCCCCCCOC(=O)CCCCCCCN(CCCCCCCC(=O)OC(CCCCCCCC)CCCCCCCC)CCOC [Compound 15, Heptadecan-9-yl 8-((2-methoxyethyl)(8-(nonyloxy)-8-oxooctyl)amino)octanoate]	5.58	lowest	64.65	184.30	4.31E+08	4.41E+07	2.05E+06	5.93E+04	6.23E+06	6.41E+04	9.01E+05	92.47%	0.094	111.1 nm	–
CCCCCCCCCOC(=O)CCCCCCCN(CCCCCCCC(=O)OC(CCCCCCCC)CCCCCCCC)C1CCCCC1O (centres unmarked) [Compound 22, Heptadecan-9-yl 8-((2-hydroxycyclohexyl)(8-(nonyloxy)-8-oxooctyl)amino)octanoate]	6.21	–	90.54	976.50	6.57E+08	3.89E+08	2.73E+07	1.16E+05	4.00E+07	4.73E+05	1.57E+06	96.00%	0.22	80.2 nm	–
CCCCCCCCCOC(=O)CCCCCCCN(CCCCCCCC(=O)OC(CCCCCCCC)CCCCCCCC)C[C@@H](C)O [Compound 11, Heptadecan-9-yl (R)-8-((2-hydroxypropyl)(8-(nonyloxy)-8-oxooctyl)amino)octanoate]	5.97	lowest	0.14	44.84	3.38E+09	7.11E+09	1.15E+08	–	8.03E+08	1.35E+07	1.04E+08	92.47%	0.13	129.6 nm	lowest
